The nature of data set [1]: Solubility in water of calcium salts. Type of data set: physicochemical. The source says: The solubility in water of the calcium lactobionate thus obtained was compared with those of other calcium salts (manufactured by Wako Pure Chemical Industries).
In data set [2] the test system is laying hens. Type of data set: in vivo. As to conditions: feed without calcium carbonate and di-lime phosphate; hens aged 470 days, fed 60 days. The method, then: (§1) Ten laying hens aged 470 days (laying white leghorn hens (Julia)) were fed with each of the feeds prepared in Examples 2 to 5 for 60 days and the egg-laying rate, the egg breakage and egg cracking rate and eggshell strength were measured. The egg-laying rate was determined in accordance with the following Equation 1, while the egg breakage and egg cracking rate were determined in accordance with the following Equation 2. Eggshell strength was determined by horizontally placing an egg and measuring the bursting strength with a rheometer. A feed containing no feed additive for laying hens was also prepared as a control. […] Egg-laying rate=(total number of eggs in each test lot/total number of eggs in control lot)×100 [Equation 1] Egg breakage/cracking rate=(number of broken or cracked eggs/total number of eggs yield)×100 [Equation 2]
Ten laying hens aged 470 days (laying white leghorn hens (Julia)) were fed with each of the feeds prepared in Examples 10 and 11 for 60 days and the egg-laying rate, the egg breakage and egg cracking rate and eggshell strength were measured in the same manner as in Examples 2 to 5. […]

Data set [3] concerns laying hens. Put plainly: Test Example 4: feeding of feeds of Examples 12 to 14 to laying hens aged 500 days for 60 days. Type of data set: in vivo. As to conditions: Boris Brown hens aged 500 days, fed 60 days. On the procedure:
as §1
Four laying hens aged 500 days (Boris Brown) were fed with each of the feeds prepared in Examples 12 to 14 for 60 days and the egg-laying rate and the eggshell strength were measured in the same manner as in Examples 2 to 5. […]

Read-outs that look alike come from different tables or passages of the source. Where only a bound is given, the exact number is not on record here.

On to `O=C([O-])[C@H](O)[C@@H](O)[C@H](O)[C@H](O)CO.O=C([O-])[C@H](O)[C@@H](O)[C@H](O)[C@H](O)CO.[Ca+2]` [Ca gluconate, reference compound], for which, in data set [1] (water), the Solubilities in water is recorded as 3.8 g/100 mL.
As for `O=C([O-])[C@H](O)[C@@H](O)[C@H](O[C@@H]1O[C@H](CO)[C@H](O)[C@H](O)[C@H]1O)[C@H](O)CO.O=C([O-])[C@H](O)[C@@H](O)[C@H](O[C@@H]1O[C@H](CO)[C@H](O)[C@H](O)[C@H]1O)[C@H](O)CO.[Ca+2]` [Ca lactobionate, calcium lactobionate], in data set [1], the Solubilities in water was above 40 g/100 mL. Besides, the Eggshell strength entry in the data set on laying hens [2] is on record as “showed an effect of reinforcing eggshells”; in the data set with laying hens [3], “eggshell reinforcing effect could be obtained”.

The values above are taken from US8808728B2, “Feed additive for laying hen and feed containing the same” (Unitika Ltd., priority 2004, dated 2014).
